The values that follow come from patent EP4692088A1, “COMPOUND ACTING AS WRN HELICASE INHIBITOR” (SHANGHAI JEYOU PHARMACEUTICAL CO., LTD., priority 2023, dated 2024).

In general, IC50 refers to the concentration that gives 50% inhibition. As a reminder, the EC50 is the concentration giving half of the maximal effect. A word on the Cmax: it is the maximum level reached in the sampled fluid or tissue.

Structures are written as SMILES.

One data set has as its system HCT116 cells. Kind of data set: Cell proliferation assay (CellTiter-Glo), HCT116. It counts as cell-based. The settings on record: Homo sapiens, 120 h, HCT-116, 5 days incubation. The procedure:
(§1) SW48 cells were plated at a density of 1,500 cells/well, and LoVo, HCT116, and SW620 cells were plated at a density of 800 cells/well in a 96-well cell culture plate, and cultured in a 37°C incubator overnight. The test compounds, which were gradient-diluted with DMSO, were added, and after incubation for 5 days, cell viability was detected using a CellTiter-Glo kit. The CellTiter-Glo reagent was equilibrated to room temperature, and an appropriate amount was added to the cell plate, followed by shaking at room temperature for 12 min. The luminescence signal was detected using a microplate reader.
(§2) The luminescence signal values of the DMSO-treated wells and cell-free wells were used as negative and positive controls, respectively, to calculate the inhibition rate of compound on cell proliferation. The concentration-inhibition curve was fitted using the "log(inhibitor) vs. normalized response -- Variable slope" equation in GraphPad Prism 8 software to obtain the IC50. [formula]
On the technique in general: ATP-based viability assays read luminescence as a measure of living cells.

For another data set, the system named is SW48 cells. Kind of data set: Cell proliferation assay (CellTiter-Glo), SW48. In kind it is cell-based. The settings on record: Homo sapiens, SW48, 120 h, SW-48, 5 days incubation. Here is the method:
as §1, §2

Another data set relates to LoVo. Description: Cell proliferation assay (CellTiter-Glo), LoVo. In kind it is cell-based. The settings on record: Homo sapiens, 120 h, 5 days incubation. The procedure:
as §1, §2

In data set [1] the test system is SW620 cells. Kind of data set: Cell proliferation assay (CellTiter-Glo), SW620. The settings on record: Homo sapiens, 120 h, SW-620 (MSS), 5 days incubation. In kind it is cell-based. The procedure:
as §1, §2

In a further data set the test system is HCT116. Description: γH2AX induction assay (HTRF Phospho-H2AX), HCT116. It counts as cell-based. The settings on record: Homo sapiens, HCT-116, incubated for 2-3 days, read-out: γ-H2AX induction HCT-116 (EC50 nM). The procedure:
(§3) SW48, HCT116, and SW620 cells were plated into 96-well cell culture plates at a density of 15,000-25,000 cells/well and cultured overnight in a 37°C incubator. The test compounds, which were gradient-diluted with DMSO, were added and incubated for 2-3 days. The γ-H2AX level was detected using HTRF Phospho-H2AX (SER139) Detection Kits. The 4× Lysis buffer and Detection buffer were equilibrated to room temperature for later use. The 4× Lysis buffer was diluted to 1× Lysis buffer using ddH2O. After the medium was aspirated, 50 µL of 1× Lysis buffer was added to each well and shaken at room temperature for 30 minutes for lysis. 16 µL of lysate was transferred to a 384-well plate, followed by the addition of 4 µL of diluted antibody mixture (Phospho-H2AX d2 antibody and Phospho-H2AX Eu Cryptate antibody were each diluted 20-fold using Detection buffer, and the two antibodies were then mixed uniformly at a 1:1 volume ratio). The mixture was incubated at room temperature for 2-24 h, and fluorescence signals at […] and 615 nm were detected using a microplate reader. Parallel treatment plates were simultaneously set up in the experiment, and cell viability was detected using the CellTiter-Glo kit. The CellTiter-Glo reagent was equilibrated to room temperature, and an appropriate amount was added to the cell plate, followed by shaking at room temperature for 12 min. The luminescence signal was detected using a microplate reader.
(§4) The fluorescence signal values of DMSO-treated wells and positive drug-treated wells were used as negative and positive controls, respectively, to calculate the level of γ-H2AX induced by the compounds. The concentration-induction rate curve was fitted using the "log(agonist) vs. response -- Variable slope (four parameters)" equation in GraphPad Prism 8 software to obtain the EC50. [formula] [formula]
In general terms: TR-FRET usually uses a lanthanide donor and a delayed reading to cut background.

The subject of a further data set is SW48. Description: γH2AX induction assay (HTRF Phospho-H2AX), SW48. It counts as cell-based. The settings on record: Homo sapiens, SW-48, incubated for 2-3 days, read-out: γ-H2AX induction SW-48 (EC50 nM). Here is the method:
as §3, §4

For data set [2], the system named is SW620 cells. Kind of data set: γH2AX induction assay (HTRF Phospho-H2AX), SW620. In kind it is cell-based. The settings on record: Homo sapiens, SW-620 (MSS), incubated for 2-3 days, read-out: γ-H2AX induction SW-620 (EC50 nM). Here is the method: as §3, §4
The nature of data set [3]: Pharmacokinetic test in mice. It counts as in vivo. The settings on record: mouse, CD-1 mice, male, oral gavage, 10 mg/kg, plasma. Here is the method: CD-1 mice were taken as test animals. Example 4, Example 22, and Comparative Example HRO761 were given by gavage. The drug concentrations in mouse plasma at different time points were determined by LC-MS/MS to investigate the pharmacokinetic characteristics of the compounds of the present disclosure in mice.
• Experimental drugs: Example 4, Example 22, and Comparative Example HRO761; • Animals: CD-1 mice, male, 24-25 g, purchased from Shanghai Jihui Laboratory Animal Care Co.,Ltd.
An appropriate amount of Example 4, Example 22, and Comparative Example HRO761 was weighed and sequentially added to an appropriate amount of dimethyl sulfoxide, solutol, and saline (final solvent: 5% DMSO + 10% solutol + 85% saline). The mixture was vortexed and sonicated to prepare a 1.0 mg/mL dosing solution.
Three mice in gavage groups of Example 4, Example 22, and Comparative Example HRO761 were administered by oral gavage after overnight fasting (dose: 10 mg/kg, administration volume: 10 mL/kg), and the mice were fed 4 h after administration.
0.04 mL of blood was collected from the animals before administration and at 0.083 h, 0.25 h, 0.5 h, 1 h, 2 h, 4 h, 6 h, 8 h, and 24 h after administration, and anticoagulated with sodium heparin. Blood samples were placed on ice after collection, and plasma was separated by centrifugation (centrifugation conditions: 8000 rpm, 5 min). The collected plasma was stored at -80°C before analysis.
LC-MS/MS was used to determine the content of the test compound in mouse plasma after intragastric administration.
Based on the calculated concentrations of the compounds in plasma at different time points, the pharmacokinetic parameters of Example 4, Example 22, and Comparative Example HRO761 in mice were calculated using winnonlin software. The pharmacokinetic parameters of Example 4, Example 22, and Comparative Example HRO761 of the present disclosure are shown in Table 13.

Data set [4] in a line: Pharmacokinetic test in rats. In kind it is in vivo. The settings on record: rat, SD rats, male, oral gavage, 10 mg/kg, plasma. Here is the method: SD rats were taken as test animals. Example 4, Example 15, and Comparative Example HRO761 were given by gavage. The drug concentrations in rat plasma at different time points were determined by LC-MS/MS to investigate the pharmacokinetic characteristics of Example 4, Example 15, and Comparative Example HRO761 in rats.
• Experimental drugs: Example 4, Example 15, and Comparative Example HRO761; • Animals: SD rats, male, 240-260 g, purchased from Shanghai Jihui Laboratory Animal Care Co.,Ltd.
An appropriate amount of Example 4, Example 15, and Comparative Example HRO761 was weighed and added to an appropriate amount of dimethyl sulfoxide, solutol, and saline (final solvent: 5% DMSO + 10% solutol + 85% saline). The mixture was vortexed and sonicated to prepare a 1.0 mg/mL dosing solution.
The rats in gavage groups (3 rats per group) of Example 4, Example 15, and Comparative Example HRO761 were administered by oral gavage after overnight fasting (dose: 10 mg/kg, administration volume: 10 mL/kg), and the rats were fed 4 h after administration.
0.2 mL of blood was collected from the animals before administration and at 0.083 h, 0.25 h, 0.5 h, 1 h, 2 h, 4 h, 6 h, 8 h, and 24 h after administration, and anticoagulated with sodium heparin. Blood samples were placed on ice after collection, and plasma was separated by centrifugation (centrifugation conditions: 8000 rpm, 5 min). The collected plasma was stored at -80°C before analysis.
The contents of Example 4, Example 15, and Comparative Example HRO761 in rat plasma after oral administration were determined by LC-MS/MS.
Based on the calculated concentrations of the compounds in plasma at different time points, the pharmacokinetic parameters of Example 4, Example 15, and Comparative Example HRO761 in rats were calculated using winnonlin software. The pharmacokinetic parameters of Example 4, Example 15, and Comparative Example HRO761 of the present disclosure are shown in Table 14.

As to `CCc1c(N2CCN(C(=O)c3ncnc(C)c3O)CC2)c(=O)n2nc(C3=CCOCC3)nc2n1CC(=O)Nc1ccc(C(F)(F)F)cc1Cl` [HRO761, reference compound], the IC50 was 143 nM in the data set with HCT116 cells, 144 nM with SW48 cells, 220 nM in the data set with LoVo and more than 25000 nM in the data set on SW620 cells [1]. Besides, the EC50 was 640 nM with HCT116, 324 nM with SW48 and more than 10000 nM with SW620 cells [2]. Moreover, the Cmax in data set [3] was 11200 ng/mL; in [4], 6960 ng/mL. Moreover, the AUC in data set [3] (read-out: AUC0-i) came out at 28300 ng·h/mL; in data set [4] (read-out: AUC0-i), 63600 ng·h/mL.
